# Data published in patent publication US20110152379A1, “COMPOSITION FOR CONTROL OF AGING AND/OR EXTENSION OF LIFE, CONTAINING DAPSONE AS ACTIVE INGREDIENT” (priority 2008, published 2011).
# Columns and labels:
# C. elegans = test: Vitality (movements) of worms at 23 days; type: in vivo; details: 23 days after adult; FIG. 4
# From the text: At this time, the arrows indicate the initial positions of worms.
# mitochondria complex V = test: Western blot of mitochondria complex V amount in C. elegans; type: in vivo; details: C. elegans treated with DDS; FIG. 8
# Experimental: C. elegans was isolated and collected by using dense sucrose (Centrifugation) and was washed with S buffer solution to remove a contaminant. In order to isolate mitochondria, C. elegans was twice homogenized in MSM buffer solution (220 mM mannitol, 10 mM sucrose, 5 mM MOPS, pH 7.4, with KOH) containing 0.2% of BSA at 5000 rpm for 20 seconds by using Precellys24 Homogenizer (Medinova) and Glass bead. The residue and non-homogenized C. elegans were removed fro the homogenized C. elegans through a centrifuge (380 g, 5 min) by using MSM buffer solution. The precipitate of homogenous substance that was centrifuged at 4500 g for 5 minutes, i.e., mitochondria were prepared. The rest was prepared as a part of cytoplasm. […] The quantitation of protein was performed by using BCA protein detection kit (Pierce).
# The lysates of C. elegans grown under appropriate condition (containing PABA alone or PABA and dapsone) were prepared. […] After transferring to a nitrocellulose, they were analyzed by using Western Blot using MS601 (subunit α of F1 of ATP synthase, Oxphos Complexes detection kit, Mitoscience, 1:1,000) and α-Tubulin (Sigma; 1:2,000) antibody. The result was detected by using ECL (Pierce) and a horseradish peroxidase-conjugated secondary antibody.
# ceDuox1 = test: RT-PCR of ceDuox1 mRNA in worms; type: in vivo, C. elegans; details: worms treated with DDS; FIG. 13
# Experimental: Total RNA was isolated by using TRI reagent available from MRC Company and first cDNA strain was synthesized by using Oligo-dT and Superscript II Reverse Transcriptase (available from Invitrogen Company). The gene amplification (PCR) was performed by using PCR Master Mix (Genenmed) and as the base sequence of the primer, ceDuox1; 5′-[…]-3′ (Forward Primer) and 5′-[…]-3′ (Reverse Primer), actin 5′-[…]-3′ (Forward Primer) and 5′-[…]-3′ (Reverse Primer) were used.
# pyruvate = test: Pyruvate content in C. elegans (fluorescence-based assay kit); type: in vivo; details: C. elegans that fed on DDS; FIG. 17A
# Experimental: The measurement of pyruvate content was performed by using Fluorescence-based assay kit (BioVision) was purchased according to its instructions. […] Three measurements were performed.
# human diploid fibroblast = test: Survival rate of human diploid fibroblast treated with PQ (CCK-8); details: DDS pretreatment (0.1, 1, 5, 20 and 50 uM) 3 hours, then 1 mM PQ 48 hours; FIG. 23
# Experimental: The above cell was cultured by adding Cell Counting Kit-8 for 48 hours and then the survival ability of cell was measured. In addition, DPI (5 uM) was pretreated for 30 minutes and NAC (2 mM) was pretreated for 3 hours, and then 1 mM of PQ was treated as a positive control.
# The evaluation of survival rate of cell was performed by using Counting Kit (CCK-8) from Dojindo Laboratory Company (Japan). The human diploid fibroblast was cultured at 96-well plate for 24 hours before treating. […] The absorbance was measured at 450 nm.
# [1] = system: cytosolic superoxide anion; test: Superoxide anion in cell (cytoplasm), DHE; type: cell-based; details: human diploid fibroblast; 1 mM PQ 30 minutes; FIG. 24A
# Experimental: The cell was treated with 1 mM of PQ for 30 minutes, and then was cultured at 37° C. for 15 minutes after adding oxidant-sensitive fluorescent dyes (A) DHE (5 uM, cytosol specific) and (B) MitoSOX (5 uM, mitochondria specific), respectively. For identifying the change of fluorescence, the excitation and emission wavelength of DHE were measured at 515 and 590 nm and MitoSOX was measured at 520 and 580 nm by using a multiwell plate reader. The results were indicated by calculating the results of three experiments as a control rate (%). The statistical significant was expressed as *, # p<0.005; ** p<0.05.
# The cell was twice washed with DPBS and Ethidium-DNA that fluoresces was immediately measured at excitation wavelength 515 nm and emission wavelength 590 nm by using Cary Eclipse fluorescence spectrophotometer (Varian, Calif., USA) machine.
# mitochondria complex = test: Mitochondria complex protein amount by Western blot in PQ-treated human diploid fibroblast; type: cell-based; details: 1 mM PQ 24 hours, FIG. 29A
# Experimental: The protein amount of mitochondria constituent complex was measured by using Western Blot using Complex I (20 kDa ND6 subunit), Complex II (30 kDa FeS, non-heme iron protein, SDHB), Complex III (47 kDa core protein 2), Complex IV (18 kDa subunit IV), Complex V (55 kDa subunit a ATP synthase), and the like. […] The membrane potential (Δψm) of mitochondria used DiOC6. […] Since then, the above fibroblast was treated with 40 nM of DiOC6 for 15 minutes. The results were measured by using Cary Eclipse Fluorescence Spectrophotometer (Varian, Calif., USA) and the excitation wavelength and emission wavelength were measured at 480 nm and 520 nm, respectively.
# The isolated sample was transferred to a nitrocellulose and analyzed through Western Blot using MS601 (Total OXPHOS Complexes Detection Kit, MitoSciences, containing antibodies against SDH30 subunit of complex II (5 μg/ml), Core2 subunit of complex III (0.2 μg/ml), COXII subunit of complex IV (2 μg/ml), and subunit α of F1-ATPase of complex V (0.2 μg/ml)), PCKpan-p, PCKα/β-p, PKCδ-p (Phospho-PKC antibody Sampler Kit, Cell Signaling Technology), PKC α, PCKβ, PKCδ (Life Technologies), β-Actin (Sigma), and the like. […] The results were shown through visualizing by using Autoradiographic film (Image Reader, LAS-3000Fujifilm, Japan).
smiles,measurement,setting,value
"Nc1ccc(S(=O)(=O)c2ccc(N)cc2)cc1 [DDS, 4,4′-diaminodiphenylsulfone]",movement of worms,C. elegans,more strong active movement
same,amount of complex V,mitochondria complex V,significantly decreased
same,"amounts of mRNA of C. elegans NOX, ceDuox",ceDuox1,significantly decreased
same,content of pyruvate compared with a control,pyruvate,high content of pyruvate
same,viability of human diploid fibroblast compared with the cell having the cytotoxic of PQ,human diploid fibroblast,improved
same,superoxide anion of cytoplasm produced by PQ (DHE assay),[1],reduced depending upon the concentration of DDS
same,amount of mitochondria complex reduced by PQ,mitochondria complex,recover
